Laboratory results from paper PMC9295568, “Dual Inhibition of Vacuolar-ATPase and TMPRSS2 Is Required for Complete Blockade of SARS-CoV-2 Entry into Cells” (Antimicrobial Agents and Chemotherapy, 2022).
Where a name gives a salt, the structure may show the parent alone.

system: endosomal acidification in Vero cells; assay: cells; format: cell-based; conditions: 40 µM
Method: Inhibition of endosomal acidification was measured using LysoTracker Red DND-99 (ThermoFisher). […] Data were plotted using Prism 9 (GraphPad).

Molecule	Percent Inhibition (%) of endosomal acidification [%]
C[CH2][Hg][S]c1ccccc1C(=O)[O-].[Na+] [THIMEROSAL]	81

same assay, conditions: Chlorocebus sabaeus, Vero, read-out: Percent Inhibition (%) of endosomal acidification

Molecule	inhibition at 40 µM [%]
CSc1ccc2c(c1)N(CCC1CCCCN1C)c1ccccc1S2 (centres unmarked) [THIORIDAZINE HYDROCHLORIDE]	92
Clc1ccc(C(Cn2ccnc2)OCc2ccsc2Cl)c(Cl)c1 (centres unmarked) [TIOCONAZOLE]	94

same assay, conditions: Chlorocebus sabaeus; Vero cells, 40 μM, singlet (n=1); read-out: Percent Inhibition (%) of endosomal acidification

Molecule	inhibition at 40 µM [%]
OC(c1cc(C(F)(F)F)nc2c(C(F)(F)F)cccc12)C1CCCCN1 (centres unmarked) [MEFLOQUINE]	64
CN1C[C@H](CNC(=O)OCc2ccccc2)C[C@@H]2c3cccc4c3c(cn4C)C[C@H]21 [METERGOLINE]	53
COC(=O)CC[C@@H](C)[C@H]1CC[C@H]2[C@@H]3CC[C@@H]4C[C@H](O)CC[C@]4(C)[C@H]3C[C@H](O)[C@]12C [METHYL DEOXYCHOLATE]	63
CN(C)c1ccc2nc3ccc(=[N+](C)C)cc-3sc2c1 [METHYLENE BLUE]	85
Clc1ccc(COC(Cn2ccnc2)c2ccc(Cl)cc2Cl)c(Cl)c1 (centres unmarked) [MICONAZOLE NITRATE]	81
O=C1c2c(O)ccc(O)c2C(=O)c2c(NCCNCCO)ccc(NCCNCCO)c21 [MITOXANTRONE HYDROCHLORIDE]	80
OC(CNCC(O)C1CCc2cc(F)ccc2O1)C1CCc2cc(F)ccc2O1 (centres unmarked) [NEBIVOLOL HYDROCHLORIDE]	52
CCCCCCCCCc1ccc(OCCOCCOCCOCCOCCOCCOCCOCCOCCO)cc1 [NONOXYNOL-9]	91
Fc1ccc([C@@H]2CCNC[C@H]2COc2ccc3c(c2)OCO3)cc1 [PAROXETINE HYDROCHLORIDE]	65
OC1(c2ccc(Cl)c(C(F)(F)F)c2)CCN(CCCC(c2ccc(F)cc2)c2ccc(F)cc2)CC1 [PENFLURIDOL]	61
C1CCC(C(CC2CCCCN2)C2CCCCC2)CC1 (centres unmarked) [PERHEXILINE MALEATE]	92
OCCN1CCN(CCCN2c3ccccc3Sc3ccc(Cl)cc32)CC1 [PERPHENAZINE]	93
O=c1[nH]c2ccccc2n1C1CCN(CCCC(c2ccc(F)cc2)c2ccc(F)cc2)CC1 [PIMOZIDE]	54
CC(=O)c1ccc2c(c1)N(CCCN1CCC(CCO)CC1)c1ccccc1S2 [PIPERACETAZINE]	78
COc1cc2nc(N3CCN(C(=O)c4ccco4)CC3)nc(N)c2cc1OC [PRAZOSIN HYDROCHLORIDE]	76
COc1cc(NC(C)CCCN)c2ncccc2c1 (centres unmarked) [PRIMAQUINE PHOSPHATE]	68
CCCC(C(=O)OCCN(CC)CC)(c1ccccc1)c1ccccc1 [PROADIFEN HYDROCHLORIDE]	59
CN1CCN(CCCN2c3ccccc3Sc3ccc(Cl)cc32)CC1 [PROCHLORPERAZINE EDISYLATE]	73
Nc1ccc2cc3ccc(N)cc3nc2c1 [PROFLAVINE HEMISULFATE]	54
CN(C)CCCN1c2ccccc2Sc2ccccc21 [PROMAZINE HYDROCHLORIDE]	75
CC(CN1c2ccccc2Sc2ccccc21)N(C)C (centres unmarked) [PROMETHAZINE HYDROCHLORIDE]	56

Molecule	inhibition at 40 µM [%]
CCN(CC)CCCC(C)Nc1c2ccc(Cl)cc2nc2ccc(OC)cc12 (centres unmarked) [QUINACRINE HYDROCHLORIDE]	63
O=C(Nc1ccc(Oc2ccc(Cl)cc2)c(Cl)c1)c1cc(I)cc(I)c1O [RAFOXANIDE]	68
O=C(c1ccc(OCCN2CCCCC2)cc1)c1c(-c2ccc(O)cc2)sc2cc(O)ccc12 [RALOXIFENE HYDROCHLORIDE]	56
CCC(C)(C)C(=O)O[C@H]1C[C@@H](C)C=C2C=C[C@H](C)[C@H](CC[C@@H]3C[C@@H](O)CC(=O)O3)[C@H]21 [SIMVASTATIN]	84
[H]/N=C(/N)N[C@H]1[C@H](O)[C@@H](O)[C@H](O[C@@H]2O[C@@H](C)[C@](O)(C=O)[C@H]2O[C@@H]2O[C@@H](CO)[C@H](O)[C@@H](O)[C@@H]2NC)[C@@H](N/C(N)=N\[H])[C@@H]1O [STREPTOMYCIN SULFATE]	101
CCCCCCCCNC(C)C(O)c1ccc(SC(C)C)cc1 (centres unmarked) [SULOCTIDIL]	94
CC/C(=C(\c1ccccc1)c1ccc(OCCN(C)C)cc1)c1ccccc1 [TAMOXIFEN CITRATE]	82
CC(C)N1CCN(c2ccc(OCC3COC(Cn4cncn4)(c4ccc(Cl)cc4Cl)O3)cc2)CC1 (centres unmarked) [TERCONAZOLE]	64
CCC(=O)O[C@H]1CC[C@H]2[C@@H]3CCC4=CC(=O)CC[C@]4(C)[C@H]3CC[C@]12C [TESTOSTERONE PROPIONATE]	64
COc1ccc2cc1Oc1ccc(cc1)C[C@H]1c3cc(c(OC)cc3CCN1C)Oc1c(OC)c(OC)cc3c1[C@H](C2)N(C)CC3 [TETRANDRINE]	50
CN1CCN(CC/C=C2/c3ccccc3Sc3ccc(S(=O)(=O)N(C)C)cc32)CC1 [THIOTHIXENE]	80
CCN(CC)CCOc1ccc2c(c1)C(=O)c1cc(OCCN(CC)CC)ccc1-2 [TILORONE]	59
Cc1cc2nc3ccc(N(C)C)cc3[s+]c2cc1N [TOLONIUM CHLORIDE]	84
C[C@H]1CC[C@]2(NC1)O[C@H]1C[C@H]3[C@@H]4CC[C@H]5C[C@@H](O[C@@H]6O[C@H](CO)[C@H](O[C@@H]7O[C@H](CO)[C@@H](O)[C@H](O[C@@H]8OC[C@@H](O)[C@H](O)[C@H]8O)[C@H]7O[C@@H]7O[C@H](CO)[C@@H](O)[C@H](O)[C@H]7O)[C@H](O)[C@H]6O)CC[C@]5(C)[C@H]4CC[C@]3(C)[C@H]1[C@@H]2C [TOMATINE]	72
CC(C)c1c(O)ccc2c1CC[C@H]1C(C)(C)CCC[C@]21C [TOTAROL]	74
Oc1cc(Cl)ccc1Oc1ccc(Cl)cc1Cl [TRICLOSAN]	96
CN1CCN(CCCN2c3ccccc3Sc3ccc(C(F)(F)F)cc32)CC1 [TRIFLUOPERAZINE HYDROCHLORIDE]	77
CN(C)CCCN1c2ccccc2Sc2ccc(C(F)(F)F)cc21 [TRIFLUPROMAZINE HYDROCHLORIDE]	86
CC(CN(C)C)CN1c2ccccc2CCc2ccccc21 (centres unmarked) [TRIMIPRAMINE MALEATE]	56
Cc1ccc(Sc2ccccc2N2CCNCC2)c(C)c1 [VORTIOXETINE HYDROBROMIDE]	63
CCOC(=O)Nc1ccc(NCc2ccc(F)cc2)nc1N [[…]]	50

same assay, conditions: Vero cells, 40 μM, singlet (n=1)

Molecule	Percent Inhibition (%) of endosomal acidification [%]
CN1CCc2c(c3ccccc3n2Cc2ccccc2)C1.CN1CCc2c(c3ccccc3n2Cc2ccccc2)C1.O=S(=O)(O)c1cccc2c(S(=O)(=O)O)cccc12 [MEBHYDROLIN NAPHTHALENESULFONATE]	52
Cc1cc(C(C)(C)CC(C)(C)C)ccc1OCCOCC[N+](C)(C)Cc1ccccc1.[Cl-] [METHYLBENZETHONIUM CHLORIDE]	85
CN1CCC(=C2c3ccccc3CCc3sccc32)CC1.O=C(O)CC(O)C(=O)O [PIZOTYLINE MALATE]	50
COc1ccc2nc3cc(Cl)ccc3c(Nc3cc(CN4CCCC4)c(O)c(CN4CCCC4)c3)c2n1.O=P(O)(O)O.O=P(O)(O)O.O=P(O)(O)O.O=P(O)(O)O [PYRONARIDINE TETRAPHOSPHATE]	70
Cl.N=C(N/N=C/c1ccc(Cl)cc1)N/N=C/c1ccc(Cl)cc1 [ROBENIDINE HYDROCHLORIDE]	76
CN(C)CCOc1ccc(/C(=C(/CCCl)c2ccccc2)c2ccccc2)cc1 [TOREMIPHENE CITRATE]	68
COC(=O)C1(C)CCCC2(C)c3ccc(O)c(C(C)C)c3CCC12 (centres unmarked) [TOTAROL-19-CARBOXYLIC ACID, METHYL ESTER]	66
CC(CN(C)C)CN1c2ccccc2Sc2ccccc21.CC(CN(C)C)CN1c2ccccc2Sc2ccccc21.O=C(O)C(O)C(O)C(=O)O (centres unmarked) [TRIMEPRAZINE TARTRATE]	78
COc1c(O)cc2oc3cc(O)c(CC=C(C)C)c(O)c3c(=O)c2c1CC=C(C)C [alpha-MANGOSTIN]	86
ABAMECTIN (avermectin B1a shown)	59
BENZALKONIUM CHLORIDE	88
BITHIONATE SODIUM	67
CHLOROPHYLLIDE Cu COMPLEX Na SALT	77
MEPARTRICIN	52

system: SARS-CoV-2 PsV (wild-type S protein); assay: microbe, parasite or virus in culture; format: cell-based; conditions: Severe acute respiratory syndrome coronavirus 2, HeLa-ACE2, read-out: IC50, inhibition of PsV entry, HeLa-ACE2 (-TMPRSS2), wild-type S PsV

Molecule	IC50 [µM]
CCN(CC)Cc1cc(Nc2ccnc3cc(Cl)ccc23)ccc1O [amodiaquine]	2.5
CCN(CC)CCCC(C)Nc1ccnc2cc(Cl)ccc12 (centres unmarked) [chloroquine]	2.6
CCN(CC)CCCC(C)Nc1c2ccc(Cl)cc2nc2ccc(OC)cc12 (centres unmarked) [quinacrine]	0.9

system: not listed separately; assay: Cell viability (CellTiter-Glo), HeLa-ACE2 cells; format: cell-based; conditions: human, read-out: half-cytotoxic concentration (CC50)
Method: In order to confirm that the reduced luminescence was not related to cell toxicity, HeLa-ACE2 and Vero-TMPRSS2 cell viability upon incubation with serial dilutions of the sample compounds were tested in parallel to the neutralization assay. […] Cell viability was monitored by adding 50 μL of CellTiter-Glo reagent (Promega) to 200 μL of media containing cells. After a 10-minute incubation, 100 μL volume was transferred to a 96-well white plate (Sigma-Aldrich) to measure luminescence using a Synergy Neo2 Multi-Mode Assay Microplate Reader (Biotek Instruments). As an additional measure of cell toxicity Vero cell, lacking TMPRSS2, viability was measured using PrestoBlue (ThermoFisher). 10,000 cells/well of pre-seeded Vero cells were cocultured with the same serial dilutions of the sample compounds at 37°C for 48 h. At 48 h, 10 μL of PrestoBlue (ThermoFisher) was added to 100 μL of media containing cells. After a 2 h incubation, fluorescence was measured using a Spectromax m5e (Molecular Devices) at an excitation of 555 nm and emission of 585 nm. Data were plotted and half-cytotoxic concentration (CC50) values were calculated using Prims 9 (GraphPad).

Molecule	CC50 [µM]
CCN(CC)Cc1cc(Nc2ccnc3cc(Cl)ccc23)ccc1O [amodiaquine]	34.7
CCN(CC)CCCC(C)Nc1ccnc2cc(Cl)ccc12 (centres unmarked) [chloroquine]	25.7
CCN(CC)CCCC(C)Nc1c2ccc(Cl)cc2nc2ccc(OC)cc12 (centres unmarked) [quinacrine]	1.7
